Source: publication PMC12974487, “Inhibition of FicD-mediated AMPylation and deAMPylation by isoprenoid diphosphates” (Proceedings of the National Academy of Sciences of the …, 2026)
Residue numbers refer to the chain shown, from its start.

Experiments:
FicD^L258D = molecular target: T1, FicD^L258D (Homo sapiens, UniProt Q9BVA6, L258D); assay: Differential scanning fluorimetry (DSF) thermal shift with FicD^L258D; assay type: binding; details: for EC50: read-out: EC50 of DSF dose-response (ΔTm)
T1 construct: soluble ER luminal domain (residues 105 to 458) of wild-type human FicD and three mutants; 6xHis-Sumo (N, cleaved yes); made in house; host or cells: Rosetta(DE3) E. coli
T1 sequence (Q9BVA6 105-458 L258D): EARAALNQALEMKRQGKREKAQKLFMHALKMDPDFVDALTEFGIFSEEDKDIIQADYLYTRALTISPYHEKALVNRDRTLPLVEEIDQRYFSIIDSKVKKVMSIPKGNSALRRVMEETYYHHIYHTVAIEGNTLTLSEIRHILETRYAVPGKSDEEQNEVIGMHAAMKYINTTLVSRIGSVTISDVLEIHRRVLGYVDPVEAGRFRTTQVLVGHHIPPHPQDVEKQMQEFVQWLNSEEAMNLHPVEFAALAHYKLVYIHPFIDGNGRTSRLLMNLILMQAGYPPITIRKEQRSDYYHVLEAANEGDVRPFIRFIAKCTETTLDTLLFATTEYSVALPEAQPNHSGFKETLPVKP
Method: Differential Scanning Fluorimetry
Thermal shift assays were performed in Biorad CfX384 Touch Real-Time PCR Detection System […]
Reactions contained 50mM HEPES pH 7.4, 200mM NaCl, 200mM KCl, 200uM DTT, 5X Invitrogen Sypro Orange (Cat no. S6650), 8-9μM protein, and indicated nucleotide, cofactor, or small molecule in a total volume of 20uL. For every experiment ‘no protein’ controls were also included with the same reaction conditions. All reactions were performed in technical triplicates. Sealed plates containing reaction mixes were centrifuged for 1-5 min at 1000 RPM prior to temperature scanning (FRET channel), which was performed from 6°C […]
DSF data was analyzed with traditional methods automated in a Python package (https://pypi.org/project/instawell/). Briefly, for each temperature, the RFU values of technical triplicates are averaged. For each timepoint, the background fluorescence was subtracted using the RFU values of the ‘no protein’ control. […]
calculated. The melting temperature (Tm) is defined as the first derivative peak value. Data

FicD^WT = molecular target: T2, FicD^WT (Homo sapiens, UniProt Q9BVA6); assay: MIDAS equilibrium dialysis/mass spectrometry metabolite screen, FicD^WT; assay type: binding; details: cutoff Q < 0.05 and |Log2 corrected fold change| > 2, metabolites 5 µM
T2 construct: soluble ER luminal domain (residues 105 to 458) of wild-type human FicD; 6xHis-Sumo (N, cleaved yes); made in house; host or cells: Rosetta(DE3) E. coli
T2 sequence (Q9BVA6 105-458): T1 sequence (Q9BVA6 105-458 L258D) with D154L
Description: To identify small-molecule metabolite interactions with FicD, we applied an unbiased high-throughput screening approach known as MIDAS ([44]).

| maximal Tm shift at saturating ligand concentration (FicD^L258D; FicD^L258D, 5 mM MgCl2) | Structure (SMILES) | EC50 (FicD^L258D; FicD^L258D, 5 mM MgCl2) [µM] | binding to FicD^L258D by DSF (FicD^L258D; absence of MgCl2) | binding to FicD^L258D by DSF (FicD^L258D; presence of 5 mM MgCl2) | MIDAS protein-metabolite interaction (enrichment/depletion) (FicD^WT) | apparent binding (DSF EC50) fold tighter than that of ADP (FicD^L258D; FicD^L258D, 5 mM MgCl2) [fold] |
| --- | --- | --- | --- | --- | --- | --- |
| ~ 10 °C | Nc1ncnc2c1ncn2[C@@H]1O[C@H](COP(=O)(O)OP(=O)(O)O)[C@@H](O)[C@H]1O [ADP] | 370 | did not bind | binding | significantly enriched | – |
| – | CC(C)=CCC/C(C)=C/COP(=O)(O)OP(=O)(O)O [GPP, geranyl-pyrophosphate] | 14.8 | – | – | significantly enriched | 20 to 30 |
| – | CC(C)=CCC/C(C)=C/CC/C(C)=C/COP(=O)(O)OP(=O)(O)O [FPP, farnesyl-pyrophosphate] | – | did not bind | bound | significantly enriched | 20 to 30 |
